Read-outs that look alike come from different tables or passages of the source.
Columns and labels:
[1] = test system: 8392 cells (B-cell); assay: cells; type: cell-based; details: 2 h
[2] = test system: 8402, T-cell; assay: inhibition of thymidine incorporation after two hour exposure, 8402; type: cell-based; details: 2 h, Table 1, 8402, two hour exposure
Procedure: (§1) To assess cytotoxic effects, various concentrations of illudins were added to cultures of cells for 48 hours, then cell growth/viability was determined by trypan blue exclusion. As an alternative to 48 hour continuous exposure studies, cells were plated in liquid culture in 96 well plates, exposed to various concentrations of illudins for 2 hours, pulsed with [^3 H]-thymidine for one to two hours and harvested onto glass filters. The filter papers were added to vials containing scintillation fluid and residual radioactivity determined in a beta (scintillation) counter.
(§2) two hour exposure to the toxins (N - 3).

[3] = test system: 242, melanoma; assay: inhibition of thymidine incorporation after two hour exposure, 242; type: cell-based; details: 2 h; Table 1; 242, two hour exposure
Procedure: as §1, §2

[4] = test system: 547, ovarian; assay: inhibition of thymidine incorporation after two hour exposure, 547; type: cell-based; details: 2 h; Table 1; 547, two hour exposure
Procedure: as §1, §2

[5] = test system: SL-2, murine (thymic); assay: inhibition of thymidine incorporation after two hour exposure, SL-2; type: cell-based; details: Mus musculus, 2 h; Table 1; SL-2, two hour exposure
Procedure: as §1, §2

[6] = test system: MDA-231, breast; assay: cells; type: cell-based; details: Homo sapiens, MDA-MB-231, 2 h
[7] = test system: MV522 cells; assay: cells; type: cell-based, human; details: Homo sapiens, MV522, 2 h, read-out: Two hour IC50
[8] = test system: MDA-231 parent (Breast) cells; assay: sensitivity of mdr lines, MDA-231 parent; type: cell-based; details: Homo sapiens, MDA-MB-231
[9] = test system: MCF7-wt parent (Breast) cells; assay: sensitivity of mdr lines, MCF7-wt parent; type: cell-based; details: Homo sapiens; MCF7-wt Parent; read-out: Sensitivity of mdr lines
[10] = test system: MCF7 ADR (GSH-transferase) cells; assay: cells; type: cell-based; details: Homo sapiens, NCI/ADR-RES, read-out: Sensitivity of mdr lines
[11] = test system: HL-60 parent cells; assay: sensitivity of mdr lines, HL-60 parent; type: cell-based; details: Homo sapiens
[12] = test system: KB parent cells; assay: sensitivity of mdr lines, KB parent; type: cell-based
[13] = test system: KB VBL (gp170+) cells; assay: sensitivity of mdr lines, KB VBL; type: cell-based
[14] = test system: L1210 parent cells; assay: sensitivity of mdr lines, L1210 parent; type: cell-based; details: Mus musculus
[15] = test system: L1210 DDPt (cis-plat) cells; assay: sensitivity of mdr lines, L1210 DDPt; type: cell-based; details: Mus musculus
[16] = test system: L1210 BCNU cells; assay: sensitivity of mdr lines, L1210 BCNU; type: cell-based; details: Mus musculus
[17] = test system: L1210 PAM (melphalan) cells; assay: sensitivity of mdr lines, L1210 PAM; type: cell-based; details: Mus musculus
[18] = test system: L1210 CPA (cyclophos) cells; assay: sensitivity of mdr lines, L1210 CPA; type: cell-based; details: Mus musculus
[19] = test system: HL-60 cells; assay: cells; type: cell-based, human
[20] = test system: HL60 cells; assay: cells; type: cell-based; details: Homo sapiens, HL-60, 48 h, read-out: 48 hour IC50
[21] = test system: MV522; assay: cells; type: cell-based; details: Homo sapiens, MV522, 48 h, read-out: 48 hour IC50
[22] = test system: Molt-4 (human T-cell leukemia) xenograft; assay: Molt-4 xenograft in athymic Balb/c nu/nu mice; type: in vivo; details: 30 μg/kg, nude mice; FIG. 5
[23] = test system: SL-2 leukemia/lymphoma cells; assay: SL-2 syngeneic model, increased life span; type: in vivo, murine
Procedure: The efficacy of dehydroilludin M was then screened in a syngeneic model using murine SL-2 cells. SL-2 leukemia/lymphoma cells are injected subcutaneously and metastasized to lymph nodes, spleen, and lungs, and drug efficacy in this model is determined by increased life span (ILS). The SL-2 cells were administered at 2.5 million cells per animal and treatment was delayed. for 7 days until the tumors were palpable. Ibis is a relatively stringent test .against established tumors and contrasts to general drug screens in the SL-2 model which normally use only 0.5 million cells and starting drug treatment at 3 days. […] When administered IV at 0.03 mg/kg, twice a week, the ILS increased to 38%.

[24] = test system: L1210 cells; assay: L1210 in vivo, increased life span
Procedure: In collaboration, the in vivo effects of dehydroilludin M was again studied. Initially the compound was studied against L1210 cells. […] The dehydroilludin M was then administered as a 24 hour infusion (5.0 mg/kg); the ILS was 11%. After we became aware of the presence of the energy-dependent uptake in human myelocytic cells, dehydroilludin M was screened for in vivo efficacy against a syngeneic mouse AML model using C1498 cells and a single bolus of […], 2.5 mg/kg IP, produced an ILS of 35%.

[25] = test system: HL60/MRI cells (human myeloid leukemia tumor cells)
[26] = test system: human lung adenocarcinoma MV522; details: in vivo
[27] = test system: human lung adenocarcinoma MV522; assay: animal or person; details: MV522, ip, read-out: life span
[28] = test system: CFU-GM; assay: colony formation zone size, CFU-GM; details: for Zone Size: CFU-GM
[29] = test system: L1210; assay: zone of inhibition / colony formation, L1210

CC1=C2C(=O)C(C)(C)C=C2C(=O)[C@](C)(O)C12CC2 [Dehydroilludin M]
IC50 [1]: > 38 µM
IC50 ([1]; read-out: Two hour IC50): 61.3 µM
IC50 [2]: > 38 µM
IC50 [3]: > 38 µM
IC50 [4]: > 38 µM
IC50 [5]: 5.24 µM
IC50 [6]: 112 ± 17 nM
IC50 [7]: 1830 nM
IC50 [8]: 54 ± 7 nM
IC50 [9]: 92 ± 15 nM
IC50 [10]: 68 ± 15 nM
IC50 [11]: 163 ± 11 nM
IC50 [12]: 125 ± 14 nM
IC50 [13]: 78 ± 19 nM
IC50 [14]: 62 ± 8 nM
IC50 [15]: 119 ± 39 nM
IC50 [16]: 100 ± 31 nM
IC50 [17]: 73 ± 31 nM
IC50 [18]: 38 ± 15 nM
toxicity to HL-60 cells [19]: less toxic
IC50 [20]: 296 ± 66 nM
IC50 [21]: 313 ± 23 nM
complete regression of tumors [22]: three of five tumors underwent complete regression
ILS ([23]; 0.03 mg/kg IV twice a week): 38%
ILS ([23]; 30 mg/kg IP twice a week): 5%
ILS ([23]; 60 mg/kg IP twice a week): 18%
ILS ([24]; 2.5 mg/kg IP daily for 5 days): 9%
ILS ([24]; 24 hour infusion (5.0 mg/kg)): 11%
total tumor weight ([25]; 1 mg/kg IV, day 11): 114 ± 55 Mg
total tumor weight ([25]; 1 mg/kg IV, day 18): 883 ± 311 Mg
total tumor weight ([25]; 1 mg/kg IV, day 25): 2274 ± 992 Mg
total tumor weight ([25]; 1 mg/kg IV, day 32): 6025 ± 1772 Mg
total tumor weight ([25]; 1 mg/kg IV, day 40): 11507 ± 3707 Mg
total tumor weight ([25]; 3 mg/kg IV, day 11): 101 ± 40 Mg
total tumor weight ([25]; 3 mg/kg IV, day 18): 911 ± 309 Mg
total tumor weight ([25]; 3 mg/kg IV, day 25): 2127 ± 1092 Mg
total tumor weight ([25]; 3 mg/kg IV, day 32): 2854 ± 1260 Mg
total tumor weight ([25]; 3 mg/kg IV, day 40): 4784 ± 2303 Mg
tumor inhibition ([25]; IP twice a week, FIG. 6): dose related tumor inhibition
inhibition of tumor growth ([25]; IV twice a week, dose dependent): effective at inhibiting tumor growth
adverse effects (food or water intake, body weight) ([25]; highest amount of either drug, IV): did not display any evidence of adverse effect
efficacy in this model [26]: markedly increased the lifespan
response vs control in vivo at 30 mg/kg [27]: 163 ± 6%
Zone Size ([28]; dilution 1/25): 200
Zone Size ([28]; dilution 1/125): 100
Zone Size ([28]; dilution 1/125 (repeat)): 50
Zone Size ([28]; dilution 1/625): 0
effect on CFU-gm cells ([28]; at concentrations inhibiting AML colony formation): no effect
Zone Size ([29]; L1210, dilution 1/25): 400
Zone Size ([29]; L1210, dilution 1/125): 200
Zone Size ([29]; L1210, dilution 1/125 (repeat)): 300
Zone Size ([29]; L1210, dilution 1/625): 100
